For experiment [1], the target named is Tyrosine-protein kinase ABL1 (Homo sapiens) (UniProt P00519). In words: Binding affinity to human wild type ABL1 (229 to 512 residues) expressed in mammalian expression system assessed as fraction of unbound kinase to substrate at 1 uM after 1 hr by KinomeScan assay.
Experiment [2] has as its target Tyrosine-protein kinase receptor UFO (Homo sapiens) (UniProt P30530). In words: Binding affinity to human AXL (R497 to Y821 residues) expressed in bacterial expression system assessed as fraction of unbound kinase to substrate at 0.1 uM after 1 hr by KinomeScan assay.
For experiment [3] the target is unchanged. The experiment can be described thus: Binding affinity to human AXL (R497 to Y821 residues) expressed in bacterial expression system assessed as fraction of unbound kinase to substrate at 1 uM after 1 hr by KinomeScan assay.
In experiment [4] the target is T1, Tyrosine-protein kinase receptor TYRO3 (Homo sapiens) (UniProt Q06418).
T1 sequence (whole entry): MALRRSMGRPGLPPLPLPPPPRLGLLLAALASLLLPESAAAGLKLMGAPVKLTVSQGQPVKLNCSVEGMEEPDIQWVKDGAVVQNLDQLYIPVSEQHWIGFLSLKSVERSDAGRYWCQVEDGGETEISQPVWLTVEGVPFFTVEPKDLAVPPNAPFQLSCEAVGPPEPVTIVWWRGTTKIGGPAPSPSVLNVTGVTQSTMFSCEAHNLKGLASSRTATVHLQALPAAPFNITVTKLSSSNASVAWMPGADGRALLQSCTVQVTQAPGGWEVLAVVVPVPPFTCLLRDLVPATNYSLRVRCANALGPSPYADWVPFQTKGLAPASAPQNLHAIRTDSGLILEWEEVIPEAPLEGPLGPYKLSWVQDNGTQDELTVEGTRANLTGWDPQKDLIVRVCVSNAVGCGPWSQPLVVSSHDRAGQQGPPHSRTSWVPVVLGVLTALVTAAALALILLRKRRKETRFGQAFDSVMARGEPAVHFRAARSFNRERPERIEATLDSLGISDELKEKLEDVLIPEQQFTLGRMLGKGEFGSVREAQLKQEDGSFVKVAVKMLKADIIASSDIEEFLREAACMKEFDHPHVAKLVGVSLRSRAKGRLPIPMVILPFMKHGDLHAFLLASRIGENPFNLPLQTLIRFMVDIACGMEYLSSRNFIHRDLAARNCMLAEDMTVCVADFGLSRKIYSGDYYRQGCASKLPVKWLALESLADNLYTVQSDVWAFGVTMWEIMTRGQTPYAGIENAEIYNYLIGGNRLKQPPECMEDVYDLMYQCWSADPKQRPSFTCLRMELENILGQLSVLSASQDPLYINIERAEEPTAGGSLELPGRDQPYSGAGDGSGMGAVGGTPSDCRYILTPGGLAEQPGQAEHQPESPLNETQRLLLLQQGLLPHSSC
The experiment can be described thus: Inhibition of recombinant GST-tagged human Tyro3 (451 to 890 residues) cytoplasmic domain expressed in Baculovirus expression system using poly (Glu-Ala-Tyr) peptide as substrate after 1.5 hrs by ELISA.

The target of experiment [5] is Tyrosine-protein kinase ABL1 (Homo sapiens) (UniProt P00519). The experiment can be described thus: Binding affinity to human wild type ABL1 (229 to 512 residues) expressed in mammalian expression system assessed as fraction of unbound kinase to substrate at 10 uM after 1 hr by KinomeScan assay.
Experiment [6] has as its target T1, Tyrosine-protein kinase receptor TYRO3 (Homo sapiens). In words: Binding affinity to wild-type human partial length TYRO3 (S497 to T814 residues) expressed in bacterial expression system assessed as fraction of unbound kinase to substrate at 0.1 uM after 1 hr by KinomeScan assay.
Experiment [7] concerns the target Fibroblast growth factor receptor 1 (Homo sapiens) (UniProt P11362). In words: Binding affinity to wild-type human partial length FGFR1 (P357 to V669 residues) expressed in bacterial expression system assessed as fraction of unbound kinase to substrate at 1 uM after 1 hr by KinomeScan assay.
For experiment [8], the target named is T2, Tyrosine-protein kinase Mer (Homo sapiens) (UniProt Q12866).
T2 sequence (whole entry): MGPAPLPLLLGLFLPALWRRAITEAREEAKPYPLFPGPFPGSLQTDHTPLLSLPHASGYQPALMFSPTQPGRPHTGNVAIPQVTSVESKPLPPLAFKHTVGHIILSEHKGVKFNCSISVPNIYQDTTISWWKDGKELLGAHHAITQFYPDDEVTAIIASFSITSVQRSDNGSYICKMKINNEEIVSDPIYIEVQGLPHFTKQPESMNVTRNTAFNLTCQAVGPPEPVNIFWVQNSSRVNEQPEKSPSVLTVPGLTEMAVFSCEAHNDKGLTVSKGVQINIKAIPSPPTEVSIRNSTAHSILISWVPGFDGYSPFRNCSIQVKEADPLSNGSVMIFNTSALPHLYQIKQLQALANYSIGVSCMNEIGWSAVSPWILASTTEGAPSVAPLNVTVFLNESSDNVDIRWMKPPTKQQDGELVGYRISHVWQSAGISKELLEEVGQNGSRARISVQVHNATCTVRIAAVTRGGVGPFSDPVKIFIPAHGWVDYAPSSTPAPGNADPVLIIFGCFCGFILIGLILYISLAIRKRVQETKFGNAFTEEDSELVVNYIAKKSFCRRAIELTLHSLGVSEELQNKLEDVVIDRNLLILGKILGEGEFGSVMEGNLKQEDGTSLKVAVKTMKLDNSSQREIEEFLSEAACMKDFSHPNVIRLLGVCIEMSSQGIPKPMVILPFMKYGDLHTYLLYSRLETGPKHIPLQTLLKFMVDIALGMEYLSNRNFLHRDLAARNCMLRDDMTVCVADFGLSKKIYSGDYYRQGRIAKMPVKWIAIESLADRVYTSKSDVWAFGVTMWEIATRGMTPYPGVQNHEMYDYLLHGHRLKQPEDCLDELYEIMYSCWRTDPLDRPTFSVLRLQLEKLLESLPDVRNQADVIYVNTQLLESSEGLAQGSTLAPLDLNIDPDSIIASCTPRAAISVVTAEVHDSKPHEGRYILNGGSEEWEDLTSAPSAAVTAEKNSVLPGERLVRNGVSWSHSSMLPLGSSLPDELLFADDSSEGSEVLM
The experiment can be described thus: Binding affinity to wild-type partial length human MER (R557 to L884 residues) expressed in bacterial expression system assessed as fraction of unbound kinase to substrate at 1 uM after 1 hr by KinomeScan assay.

Experiment [9] concerns the target Cyclin-dependent kinase 2 (Homo sapiens) (UniProt P24941). In words: Binding affinity to wild-type human full length CDK2 (M1 to L298 residues) expressed in bacterial expression system assessed as fraction of unbound kinase to substrate at 0.1 uM after 1 hr by KinomeScan assay.
The target in experiment [10] is T1, Tyrosine-protein kinase receptor TYRO3 (Homo sapiens). In words: Binding affinity to wild-type human partial length TYRO3 (S497 to T814 residues) expressed in bacterial expression system assessed as fraction of unbound kinase to substrate at 10 uM after 1 hr by KinomeScan assay.
Experiment [11] addresses Tyrosine-protein kinase receptor UFO (Homo sapiens) (UniProt P30530). The experiment can be described thus: Binding affinity to human AXL (R497 to Y821 residues) expressed in bacterial expression system assessed as fraction of unbound kinase to substrate at 10 uM after 1 hr by KinomeScan assay.

Calls of active or inactive are those of the source. The rule behind the calls is not given here.

Sequence of Fibroblast growth factor receptor 1 (Homo sapiens) (P11362 22-822 limits assumed): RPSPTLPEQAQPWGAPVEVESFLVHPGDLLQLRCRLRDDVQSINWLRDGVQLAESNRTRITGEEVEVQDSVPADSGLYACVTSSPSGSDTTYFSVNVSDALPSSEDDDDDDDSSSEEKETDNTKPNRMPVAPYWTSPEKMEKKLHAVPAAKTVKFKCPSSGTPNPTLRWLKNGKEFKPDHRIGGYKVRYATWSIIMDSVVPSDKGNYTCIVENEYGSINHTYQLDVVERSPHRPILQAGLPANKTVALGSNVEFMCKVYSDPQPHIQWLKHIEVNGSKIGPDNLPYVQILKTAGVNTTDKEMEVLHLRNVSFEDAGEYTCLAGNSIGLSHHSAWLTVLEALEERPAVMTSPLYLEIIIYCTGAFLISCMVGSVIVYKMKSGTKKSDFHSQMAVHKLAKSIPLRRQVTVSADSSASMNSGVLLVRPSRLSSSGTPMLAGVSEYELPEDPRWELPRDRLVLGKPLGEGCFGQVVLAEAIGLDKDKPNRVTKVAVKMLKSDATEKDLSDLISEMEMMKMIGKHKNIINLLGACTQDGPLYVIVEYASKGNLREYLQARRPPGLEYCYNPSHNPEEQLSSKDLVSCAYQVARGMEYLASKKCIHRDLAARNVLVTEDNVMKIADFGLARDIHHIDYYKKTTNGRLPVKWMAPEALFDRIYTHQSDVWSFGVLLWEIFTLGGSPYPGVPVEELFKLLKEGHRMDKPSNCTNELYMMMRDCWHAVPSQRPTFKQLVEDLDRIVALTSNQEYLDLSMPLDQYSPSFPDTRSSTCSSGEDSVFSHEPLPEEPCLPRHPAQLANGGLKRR
Sequence of Tyrosine-protein kinase receptor UFO (Homo sapiens) (P30530 whole entry, the tested form may be a part): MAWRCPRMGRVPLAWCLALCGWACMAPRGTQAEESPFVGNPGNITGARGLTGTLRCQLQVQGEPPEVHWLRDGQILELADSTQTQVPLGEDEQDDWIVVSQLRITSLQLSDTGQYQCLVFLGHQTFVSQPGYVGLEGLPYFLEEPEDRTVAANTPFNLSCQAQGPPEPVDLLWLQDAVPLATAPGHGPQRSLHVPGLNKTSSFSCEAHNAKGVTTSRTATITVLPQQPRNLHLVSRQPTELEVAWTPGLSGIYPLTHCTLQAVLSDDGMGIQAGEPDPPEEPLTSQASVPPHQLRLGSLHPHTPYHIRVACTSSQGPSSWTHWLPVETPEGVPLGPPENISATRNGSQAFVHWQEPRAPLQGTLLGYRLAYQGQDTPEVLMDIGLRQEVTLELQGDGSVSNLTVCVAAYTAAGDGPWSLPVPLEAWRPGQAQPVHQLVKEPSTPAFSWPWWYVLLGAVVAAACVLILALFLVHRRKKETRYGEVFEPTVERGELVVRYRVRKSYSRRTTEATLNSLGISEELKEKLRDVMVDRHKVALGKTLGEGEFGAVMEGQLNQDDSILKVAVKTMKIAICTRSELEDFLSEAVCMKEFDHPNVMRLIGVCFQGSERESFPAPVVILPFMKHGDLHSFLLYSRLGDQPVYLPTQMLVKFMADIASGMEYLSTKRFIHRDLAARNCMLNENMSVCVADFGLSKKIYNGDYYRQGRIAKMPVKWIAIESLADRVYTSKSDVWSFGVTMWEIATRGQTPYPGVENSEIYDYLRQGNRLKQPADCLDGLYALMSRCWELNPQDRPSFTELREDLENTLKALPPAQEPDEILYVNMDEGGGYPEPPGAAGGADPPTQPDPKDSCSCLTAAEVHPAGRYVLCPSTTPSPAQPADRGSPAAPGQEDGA
Sequence of Tyrosine-protein kinase ABL1 (Homo sapiens) (P00519 whole entry, the tested form may be a part): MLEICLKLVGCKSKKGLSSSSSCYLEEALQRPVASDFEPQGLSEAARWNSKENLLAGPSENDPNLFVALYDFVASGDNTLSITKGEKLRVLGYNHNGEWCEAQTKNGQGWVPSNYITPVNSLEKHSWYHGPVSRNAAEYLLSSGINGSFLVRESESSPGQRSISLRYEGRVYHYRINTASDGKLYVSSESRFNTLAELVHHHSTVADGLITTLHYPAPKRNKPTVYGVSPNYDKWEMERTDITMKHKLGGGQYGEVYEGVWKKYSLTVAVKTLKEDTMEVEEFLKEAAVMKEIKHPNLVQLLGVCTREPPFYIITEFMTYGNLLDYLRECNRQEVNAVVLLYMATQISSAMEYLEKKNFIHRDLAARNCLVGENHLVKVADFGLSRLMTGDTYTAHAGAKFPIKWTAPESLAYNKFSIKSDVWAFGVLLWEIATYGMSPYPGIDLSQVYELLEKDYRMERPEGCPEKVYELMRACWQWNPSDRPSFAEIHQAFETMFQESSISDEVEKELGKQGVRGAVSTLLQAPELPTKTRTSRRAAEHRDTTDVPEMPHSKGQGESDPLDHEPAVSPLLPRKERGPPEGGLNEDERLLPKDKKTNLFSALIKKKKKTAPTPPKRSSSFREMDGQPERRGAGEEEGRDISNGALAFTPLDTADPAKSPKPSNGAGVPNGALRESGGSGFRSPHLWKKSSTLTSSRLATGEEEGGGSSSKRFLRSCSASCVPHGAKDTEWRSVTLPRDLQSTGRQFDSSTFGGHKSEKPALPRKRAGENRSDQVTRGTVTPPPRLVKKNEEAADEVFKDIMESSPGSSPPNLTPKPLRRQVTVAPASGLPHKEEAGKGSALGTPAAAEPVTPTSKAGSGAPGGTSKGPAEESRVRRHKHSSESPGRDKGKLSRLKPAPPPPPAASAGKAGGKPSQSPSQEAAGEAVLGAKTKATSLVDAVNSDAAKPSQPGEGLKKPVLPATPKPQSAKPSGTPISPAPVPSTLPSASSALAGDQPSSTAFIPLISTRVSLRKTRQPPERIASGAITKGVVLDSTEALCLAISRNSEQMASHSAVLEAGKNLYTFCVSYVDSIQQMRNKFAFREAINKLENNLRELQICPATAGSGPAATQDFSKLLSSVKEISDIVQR

In the case of `O=C(Nc1ccc(Oc2ccnc3[nH]cnc23)c(F)c1)c1cccn(-c2ccc(F)cc2)c1=O`, the Activity is 13% in [1]; 78% in [2]; 90.7% in experiment [3]; 34% in experiment [5]; 17% in experiment [6]; 2% in [7]. The Activity is 99.3% in experiment [8], 0% in experiment [9], 99.8% in [10] and 93.3% in experiment [11]. In addition, the inhibition result in experiment [4] is “Active”.
With `O=C(Nc1ccc(Oc2c(Br)cnc3[nH]cnc23)c(F)c1)c1cccn(-c2ccc(F)cc2)c1=O`, the Activity in [1] was determined as 0%; in [2], 4%; in experiment [3] it was 52%; in experiment [5], 0%; in experiment [6], 15%; in [7], 1%. Besides, the Activity in [8] worked out at 60%; in experiment [9], 0%; in [10], 10%; in [11], 90.4%. Besides, the inhibition entry in experiment [4] was “inactive”.
In the case of `Cc1cnc2[nH]cnc2c1Oc1ccc(NC(=O)c2cccn(-c3ccc(F)cc3)c2=O)cc1F`, the Activity in experiment [1] is 1%; in [2] it was 22%; in [3], 67%; in experiment [5] it was 3%; in experiment [6] it was 0%; in experiment [7], 2%. Further, the Activity amounted to 78% in [8], 0% in [9], 5% in experiment [10] and 90.1% in experiment [11]. Further, in experiment [4], the inhibition entry is “inactive”.
Turning to `CC(C)c1nc2c(Oc3ccc(NC(=O)c4cccn(-c5ccc(F)cc5)c4=O)cc3F)ccnc2[nH]1`, the Activity in experiment [1] was 3%; in [2] it was 61%; in experiment [3] it was 90%; in [5], 17%; in experiment [6], 1%; in experiment [7] it was 1%. Also, the Activity turned out to be 99.6% in [8], 41% in experiment [9], 92.4% in experiment [10] and 89% in experiment [11]. Further, the inhibition result in [4] was “inactive”.

(Values after ChEMBL document CHEMBL4261615, “Design, synthesis, biological evaluation and cellular imaging of imidazo[4,5-b]pyridine derivatives as potent and selective TAM inhibitors” (Bioorg Med Chem, 2018).)
